Experimental data taken from patent publication US20260068885A1, “HERBICIDAL COMPOSITIONS” (BAYER AKTIENGESELLSCHAFT, priority 2022, published 2026).

What was measured:
Test in all cases: Post-emergence herbicidal action against harmful plants (greenhouse)
Assay type in all cases: in vivo
[1] = system: Xanthium strumarium (XANST); conditions: for Herbicidal efficacy [%] against XANST 10 DAT: application rate 0.3 g a.i./ha
[2] = system: Abutilon theophrasti (ABUTH)
Procedure: (§1) Seeds of monocotyledonous and dicotyledonous weed and crop plants are laid out in sandy loam soil in wood-fibre pots, covered with soil and cultivated in a greenhouse under good growth conditions. 2 to 3 weeks after sowing, the test plants are treated at the one-leaf stage. The compounds of the invention, formulated in the form of wettable powders (WP) or as emulsion concentrates (EC), are then sprayed onto the green parts of the plants in the form of an aqueous suspension or emulsion at a water application rate equivalent to 600 to 800 l/ha, with addition of 0.2% wetting agent. After the test plants have been […], the action of the preparations is assessed visually in comparison to untreated controls (herbicidal action in percent (%): 100% activity=the plants have died, 0% activity=like control plants). […] The tables below illustrate, in an illustrative manner, the post-emergence herbicidal action of the compounds of the invention, the herbicidal activity being stated in percent.
(§2) In the tables that follow, the abbreviations mean the following: • E: means the synergism value to be expected according to the Colby formula. • Δ SYN: means the difference between the actual and expected synergism value. • DAT: means days after treatment.

[3] = system: Solanum nigrum (SOLNI)
Procedure: as §1, §2

[4] = system: Emex australis (EMEAU)
Procedure: (§3) Seeds of monocotyledonous and dicotyledonous weed and crop plants are laid out in sandy loam soil in wood-fibre pots, covered with soil and cultivated in a greenhouse under good growth conditions. 2 to 3 weeks after sowing, the test plants are treated at the one-leaf stage. The compounds of the invention, formulated in the form of wettable powders (WP) or as emulsion concentrates (EC), are then sprayed onto the green parts of the plants in the form of an aqueous suspension or emulsion at a water application rate equivalent to 600 to 800 l/ha, with addition of 0.2% wetting agent. After the test plants have been left to stand in the greenhouse under optimal growth conditions for about 3 weeks, the action of the preparations is assessed visually in comparison to untreated controls (herbicidal action in percent (%): 100% activity=the plants have died, 0% activity=like control plants). […] The tables below illustrate, in an illustrative manner, the post-emergence herbicidal action of the compounds of the invention, the herbicidal activity being stated in percent.
as §2

[5] = system: Xanthium strumarium (XANST)
Procedure: as §3, §2

[6] = system: Sorghum halepense (SORHA)
Procedure: as §3, §2

[7] = system: Pharbitis purpurea (PHBPU)
[8] = system: Erigeron bonariensis (ERIBO)
Procedure: as §1, §2

[9] = system: Cyperus iria (CYPIR)
Procedure: as §1, §2

[10] = system: Setaria viridis (SETVI)
Procedure: as §1, §2

[11] = system: Polygonum convolvulus (POLCO)
[12] = system: Brachiaria platyphylla (BRAPP)
Procedure: as §3, §2

[13] = system: Euphorbia heterophylla (EPHHL); conditions: 21 DAT
Procedure: as §3, §2

[14] = application rate 0.025 g a.i./ha, 21 DAT
[15] = application rate 0.025 g a.i./ha
[16] = application rate 0.00625 g a.i./ha

For C=C[C@]1(C(=O)N[C@H]2CO[C@@H](C(=O)OC)C2)CC(c2cc(F)cc(F)c2)=NO1 (relative stereo) [P1, methyl (2R*,4R*)-4-[[(5S)-3-(3,5-difluorophenyl)-5-vinyl-4H-isoxazole-5-carbonyl]amino]tetrahydrofuran-2-carboxylate], the “Herbicidal efficacy [%] against XANST 10 DAT” value [1] was 60%, the Herbicidal efficacy ([2]; ABUTH 10 DAT, 0.3 g a.i./ha) was 70% and the Herbicidal efficacy ([2]; ABUTH 21 DAT, 1.2 g a.i./ha) was 85%. For the same compound, the Herbicidal efficacy ([3]; SOLNI 10 DAT, 0.3 g a.i./ha) was 40%, the Herbicidal efficacy ([4]; EMEAU 10 DAT, 1.2 g a.i./ha) was 70% and the Herbicidal efficacy ([4]; EMEAU 21 DAT, 1.2 g a.i./ha) was 80%. The “Herbicidal efficacy [%] against XANST 21 DAT” value ([5]; application rate 0.3 g a.i./ha) was 40%, the “Herbicidal efficacy [%] against SORHA 21 DAT” value ([6]; application rate 0.3 g a.i./ha) was 90% and the “Herbicidal efficacy [%] against SORHA 21 DAT” value ([6]; application rate 1.2 g a.i./ha) was 90%.
CCn1ncc(C(=O)c2ccc(S(C)(=O)=O)c(OCCOC)c2C)c1OC(C)OC(=O)OC (stereo not shown) [tolpyralate] showed a Herbicidal efficacy ([7]; PHBPU 10 DAT, 0.5 g a.i./ha) of 10%, a Herbicidal efficacy ([7]; PHBPU 21 DAT, 0.5 g a.i./ha) of 10% and a Herbicidal efficacy ([8]; ERIBO 10 DAT, 2 g a.i./ha) of 90%. For the same compound, the Herbicidal efficacy ([8]; ERIBO 21 DAT, 2 g a.i./ha) was 85%, the Herbicidal efficacy ([9]; CYPIR 10 DAT, 0.5 g a.i./ha) was 40% and the Herbicidal efficacy ([9]; CYPIR 21 DAT, 0.5 g a.i./ha) was 20%. The Herbicidal efficacy ([9]; CYPIR 21 DAT, 2 g a.i./ha) was 30%, the “Herbicidal efficacy [%] against SOLNI 21 DAT” value ([3]; application rate 0.5 g a.i./ha, 21 DAT) was 85% and the Herbicidal efficacy ([10]; SETVI 21 DAT, 0.5 g a.i./ha) was 60%. For the same compound, the Herbicidal efficacy ([10]; SETVI 21 DAT, 2 g a.i./ha) was 88%, the Herbicidal efficacy ([11]; POLCO 10 DAT, 0.5 g a.i./ha) was 30% and the Herbicidal efficacy ([11]; POLCO 21 DAT, 0.5 g a.i./ha) was 20%. It also gave a Herbicidal efficacy ([12]; BRAPP 10 DAT, 0.5 g a.i./ha) of 30%, a Herbicidal efficacy ([12]; BRAPP 21 DAT, 0.5 g a.i./ha) of 20% and a Herbicidal efficacy ([12]; BRAPP 21 DAT, 2 g a.i./ha) of 80%. For the same compound, the “Herbicidal efficacy [%] against XANST 21 DAT” value ([5]; application rate 0.5 g a.i./ha) was 30%, the “Herbicidal efficacy [%] against XANST 21 DAT” value ([5]; application rate 2 g a.i./ha) was 70% and the “Herbicidal efficacy [%] against SORHA 10 DAT” value ([6]; application rate 2 g a.i./ha) was 85%. For the same compound, the “Herbicidal efficacy [%] against SORHA 21 DAT” value ([6]; application rate 2 g a.i./ha) was 50%.
Cc1cccc(C)c1-n1c(=O)c2cc(C(=O)C3C(=O)CCCC3=O)ccc2n(C)c1=O [benquitrione] was tested, and the “Herbicidal efficacy [%] against XANST 21 DAT” value ([1]; application rate 6 g a.i./ha, 21 DAT) was 50%, the Herbicidal efficacy ([7]; PHBPU 10 DAT, 6 g a.i./ha) was 40% and the Herbicidal efficacy ([7]; PHBPU 21 DAT, 6 g a.i./ha) was 20%. For the same compound, the Herbicidal efficacy ([8]; ERIBO 10 DAT, 6 g a.i./ha) was 85%, the Herbicidal efficacy ([8]; ERIBO 21 DAT, 6 g a.i./ha) was 85% and the Herbicidal efficacy ([9]; CYPIR 10 DAT, 1.5 g a.i./ha) was 40%. For the same compound, the Herbicidal efficacy ([9]; CYPIR 21 DAT, 1.5 g a.i./ha) was 30%, the Herbicidal efficacy ([2]; ABUTH 10 DAT, 1.5 g a.i./ha) was 20% and the Herbicidal efficacy ([2]; ABUTH 10 DAT, 6 g a.i./ha) was 40%. The Herbicidal efficacy ([2]; ABUTH 21 DAT, 6 g a.i./ha) was 10%, the Herbicidal efficacy ([3]; SOLNI 21 DAT, 6 g a.i./ha) was 85% and the Herbicidal efficacy ([10]; SETVI 10 DAT, 6 g a.i./ha) was 88%. It also gave a Herbicidal efficacy ([10]; SETVI 21 DAT, 1.5 g a.i./ha) of 50%, a Herbicidal efficacy ([11]; POLCO 10 DAT, 6 g a.i./ha) of 20% and a Herbicidal efficacy ([12]; BRAPP 10 DAT, 1.5 g a.i./ha) of 20%. For the same compound, the Herbicidal efficacy ([12]; BRAPP 10 DAT, 6 g a.i./ha) was 80%, the Herbicidal efficacy ([12]; BRAPP 21 DAT, 1.5 g a.i./ha) was 10% and the Herbicidal efficacy ([12]; BRAPP 21 DAT, 6 g a.i./ha) was 20%. The “Herbicidal efficacy [%] against SORHA 10 DAT” value ([6]; application rate 1.5 g a.i./ha) was 10%, the “Herbicidal efficacy [%] against SORHA 21 DAT” value ([6]; application rate 1.5 g a.i./ha) was 0% and the “Herbicidal efficacy [%] against SORHA 10 DAT” value ([6]; application rate 6 g a.i./ha) was 20%. For the same compound, the “Herbicidal efficacy [%] against SORHA 21 DAT” value ([6]; application rate 6 g a.i./ha) was 10%.
In the case of C=C[C@]1(C(=O)N[C@H]2C=C[C@@H](C(=O)OC)C2)CC(c2cc(F)cc(F)c2)=NO1 [P2, methyl (1S,4R)-4-[[(5S)-3-(3,5-difluorophenyl)-5-vinyl-4H-isoxazole-5-carbonyl]amino]cyclopent-2-ene-1-carboxylate], the “Herbicidal efficacy [%] against XANST 10 DAT” value [1] is reported as 20%, the Herbicidal efficacy ([8]; ERIBO 10 DAT, 0.3 g a.i./ha) is reported as 0% and the Herbicidal efficacy ([8]; ERIBO 21 DAT, 0.3 g a.i./ha) is reported as 0%. It also gave a Herbicidal efficacy ([9]; CYPIR 10 DAT, 0.3 g a.i./ha) of 50%, a Herbicidal efficacy ([9]; CYPIR 10 DAT, 1.2 g a.i./ha) of 88% and a Herbicidal efficacy ([9]; CYPIR 21 DAT, 0.3 g a.i./ha) of 40%. The Herbicidal efficacy ([9]; CYPIR 21 DAT, 1.2 g a.i./ha) was 88%, the Herbicidal efficacy ([2]; ABUTH 10 DAT, 0.3 g a.i./ha) was 20% and the Herbicidal efficacy ([2]; ABUTH 10 DAT, 1.2 g a.i./ha) was 30%. It also gave a Herbicidal efficacy ([2]; ABUTH 21 DAT, 0.3 g a.i./ha) of 10%, a Herbicidal efficacy ([2]; ABUTH 21 DAT, 1.2 g a.i./ha) of 20% and a Herbicidal efficacy ([3]; SOLNI 10 DAT, 0.3 g a.i./ha) of 60%. The Herbicidal efficacy ([3]; SOLNI 21 DAT, 1.2 g a.i./ha) was 40%, the Herbicidal efficacy ([11]; POLCO 21 DAT, 0.3 g a.i./ha) was 90% and the Herbicidal efficacy ([4]; EMEAU 21 DAT, 0.3 g a.i./ha) was 88%. The Herbicidal efficacy ([4]; EMEAU 21 DAT, 1.2 g a.i./ha) was 88%, the Herbicidal efficacy ([12]; BRAPP 21 DAT, 0.3 g a.i./ha) was 85% and the “Herbicidal efficacy [%] against XANST 21 DAT” value ([5]; application rate 0.3 g a.i./ha) was 10%. For the same compound, the “Herbicidal efficacy [%] against SORHA 10 DAT” value ([6]; application rate 0.3 g a.i./ha) was 80%.
With COC(=O)[C@@H](C)O/N=C/c1cc(-n2c(=O)cc(C(F)(F)F)n(C)c2=O)c(F)cc1Cl [flufenoximacil] the “Herbicidal efficacy [%] against PHBPU 21 DAT” value [7, 14] was 75%, the “Herbicidal efficacy [%] against ERIBO 21 DAT” value [8, 15] was 40% and the “Herbicidal efficacy [%] against ERIBO 21 DAT” value ([8]; application rate 0.1 g a.i./ha) was 60%. For the same compound, the “Herbicidal efficacy [%] against POLCO 21 DAT” value [11, 14] was 60%, the “Herbicidal efficacy [%] against EMEAU 10 DAT” value ([4]; application rate 0.00625 g a.i./ha, 10 DAT) was 50% and the “Herbicidal efficacy [%] against EMEAU 21 DAT” value ([4]; application rate 0.00625 g a.i./ha, 21 DAT) was 10%. For the same compound, the “Herbicidal efficacy [%] against XANST 21 DAT” value [5, 16] was 10%, the “Herbicidal efficacy [%] against SORHA 10 DAT” value [6, 16] was 20% and the “Herbicidal efficacy [%] against EPHHL 21 DAT” value [13, 16] was 40%. The “Herbicidal efficacy [%] against EPHHL 21 DAT” value [13, 15] was 88%.
